Data taken from PubChem BioAssay AID1745844 (Carcinogenic Potency Database (CPDB), 2022).
Where “and” joins values, the source holds several entries; their conditions need not be identical. Equal values may be shown once. Calls of active or inactive are those of the source. How the calls were made is not given here.

System: rodent lifetime carcinogenesis bioassay, tumor incidence TD50
Assay: carcinogenic potency in animals, long-term in vivo studies, CPDB compilation (AID 1745844)
[1] = mouse, strain B6C3F1, males, by gavage, site: any site (literature study), lesion: several types, types named in the paper, dosed 103 weeks, study length 104 weeks

## CCCCCl
mouse, strain B6C3F1, females, by gavage, site: any site (literature study), lesion: several types, types named in the paper, dosed 103 weeks, study length 104 weeks
  carcinogen call: negative (inactive)
mouse, strain B6C3F1, females, by gavage, site: liver, lesion: hepatocellular adenoma + hepatocellular carcinoma + neoplastic nodule, dosed 103 weeks, study length 105 weeks
  TD50: 1380 mg/kg/day
mouse, strain B6C3F1, females, by gavage, site: lung, lesion: alveolar/bronchiolar adenoma + alveolar/bronchiolar carcinoma, dosed 103 weeks, study length 104 weeks
  TD50: 13100 mg/kg/day
mouse, strain B6C3F1, females, by gavage, site: lung, lesion: alveolar/bronchiolar adenoma + alveolar/bronchiolar carcinoma, dosed 103 weeks, study length 105 weeks
  TD50: 1160 mg/kg/day
mouse, strain B6C3F1, females, by gavage, site: lung, lesion: alveolar/bronchiolar carcinoma, dosed 103 weeks, study length 105 weeks
  TD50: 1710 mg/kg/day (inactive)
[1]
  TD50: 423 mg/kg/day
  carcinogen call: negative (inactive)
mouse, strain B6C3F1, males, by gavage, site: bone marrow + kidney/pelvis + liver + multiple organs + omentum + spleen + thorax, lesion: hemangiosarcoma, dosed 103 weeks, study length 104 weeks
  TD50: 2830 mg/kg/day
mouse, strain B6C3F1, males, by gavage, site: liver, lesion: hepatocellular adenoma + hepatocellular carcinoma + neoplastic nodule, dosed 103 weeks, study length 104 weeks
  TD50: 808 mg/kg/day and 623 mg/kg/day
mouse, strain B6C3F1, males, by gavage, site: liver, lesion: hepatocellular adenoma + hepatocellular carcinoma, dosed 103 weeks, study length 104 weeks
  TD50: 808 mg/kg/day (inactive)
mouse, strain B6C3F1, males, by gavage, site: lung, lesion: alveolar/bronchiolar adenoma + alveolar/bronchiolar carcinoma, dosed 103 weeks, study length 104 weeks
  TD50: 3190 mg/kg/day
rat, strain Fischer 344, females, by gavage, site: any site (literature study), lesion: several types, types named in the paper, dosed 103 weeks, study length 105 weeks
  TD50: 100 mg/kg/day (inactive)
rat, strain Fischer 344, females, by gavage, site: liver, lesion: hepatocellular adenoma + hepatocellular carcinoma + neoplastic nodule, dosed 103 weeks, study length 105 weeks
  TD50: 1510 mg/kg/day
rat, strain Fischer 344, males, by gavage, site: any site (literature study), lesion: several types, types named in the paper, dosed 103 weeks, study length 104 weeks
  TD50: 40.5 mg/kg/day
rat, strain Fischer 344, males, by gavage, site: testis, lesion: interstitial-cell tumor, dosed 103 weeks, study length 104 weeks
  TD50: 45.1 mg/kg/day (inactive)

## F
mouse, strain B6C3F1, females, in drinking water, site: any site (literature study), lesion: several types, types named in the paper, dosed 103 weeks, study length 104 weeks
  carcinogen call: negative (inactive)
mouse, strain B6C3F1, males, in drinking water, site: any site (literature study), lesion: several types, types named in the paper, dosed 103 weeks, study length 104 weeks
  carcinogen call: negative (inactive)
mouse, strain Charles River CD1, both sexes, in drinking water, site: any site (literature study), lesion: malignant tumor, dosed 129 weeks, study length 129 weeks
  carcinogen call: negative (inactive)
mouse, strain Charles River CD1, both sexes, in drinking water, site: any site (literature study), lesion: one or several types, types not named, dosed 129 weeks, study length 129 weeks
  carcinogen call: negative (inactive)
mouse, strain Charles River CD1, both sexes, in drinking water, site: liver, lesion: one or several types, types not named, dosed 129 weeks, study length 129 weeks
  carcinogen call: negative (inactive)
mouse, strain Charles River CD1, both sexes, in drinking water, site: lung, lesion: one or several types, types not named, dosed 129 weeks, study length 129 weeks
  carcinogen call: negative (inactive)
mouse, strain DBA, females, in feed, site: mammary gland, lesion: carcinoma, dosed 90 weeks, study length 90 weeks
  carcinogen call: negative (inactive)
rat, strain Fischer 344, females, in drinking water, site: any site (literature study), lesion: several types, types named in the paper, dosed 103 weeks, study length 104 weeks
  TD50: 73.9 mg/kg/day (inactive)
rat, strain Fischer 344, males, in drinking water, site: any site (literature study), lesion: several types, types named in the paper, dosed 103 weeks, study length 104 weeks
  TD50: 147 mg/kg/day
rat, strain Fischer 344, males, in drinking water, site: coccyx + humerus + subcutaneous tissue + vertebra, lesion: osteosarcoma, dosed 103 weeks, study length 104 weeks
  TD50: 82.7 mg/kg/day
rat, strain Fischer 344, males, in drinking water, site: coccyx + humerus + vertebra, lesion: osteosarcoma, dosed 103 weeks, study length 104 weeks
  TD50: 109 mg/kg/day

## Cc1ccc(Cc2cnc(NCCSCc3ccc(CN(C)C)o3)[nH]c2=O)cn1
mouse, strain SK&F Swiss, females, by gavage, site: gastric mucosa, lesion: carcinoid tumor, malignant, dosed 91 weeks, study length 91 weeks
  carcinogen call: negative (inactive)
mouse, strain SK&F Swiss, males, by gavage, site: gastric mucosa, lesion: carcinoid tumor, malignant, dosed 91 weeks, study length 91 weeks
  carcinogen call: negative (inactive)
rat, strain SK&F Wistar, females, by gavage, site: gastric mucosa, lesion: carcinoid tumor, malignant, dosed 100 weeks, study length 100 weeks
  TD50: 2990 mg/kg/day
rat, strain SK&F Wistar, males, by gavage, site: gastric mucosa, lesion: carcinoid tumor, malignant, dosed 100 weeks, study length 100 weeks
  TD50: 3830 mg/kg/day

## COc1ccc(O)cc1
rat, strain F344/DuCrj, females, in feed, site: forestomach, lesion: squamous-cell carcinoma, dosed 104 weeks, study length 104 weeks
  TD50: 3070 mg/kg/day
rat, strain F344/DuCrj, females, in feed, site: forestomach, lesion: squamous-cell papilloma, dosed 104 weeks, study length 104 weeks
  TD50: 2580 mg/kg/day
rat, strain F344/DuCrj, males, in feed, site: forestomach, lesion: one or several types, types not named, dosed 51 weeks, study length 52 weeks
  carcinogen call: negative (inactive)
rat, strain F344/DuCrj, males, in feed, site: forestomach, lesion: papilloma, dosed 51 weeks, study length 52 weeks
  TD50: 1460 mg/kg/day
rat, strain F344/DuCrj, males, in feed, site: forestomach, lesion: squamous-cell carcinoma, dosed 104 weeks, study length 104 weeks
  TD50: 377 mg/kg/day
rat, strain F344/DuCrj, males, in feed, site: forestomach, lesion: squamous-cell papilloma, dosed 104 weeks, study length 104 weeks
  TD50: 832 mg/kg/day
rat, strain F344/DuCrj, males, in feed, site: stomach, glandular, lesion: adenoma, dosed 104 weeks, study length 104 weeks
  TD50: 16200 mg/kg/day
rat, strain F344/DuCrj, males, in feed, site: stomach, glandular, lesion: one or several types, types not named, dosed 51 weeks, study length 52 weeks
  carcinogen call: negative (inactive)

## O=c1[nH]nc(-c2ccc([N+](=O)[O-])o2)o1
rat, strain Sprague-Dawley, females, in feed, site: any site (literature study), lesion: several types, types named in the paper, dosed 46 weeks, study length 66 weeks
  TD50: 8.61 mg/kg/day
rat, strain Sprague-Dawley, females, in feed, site: mammary gland, lesion: adenocarcinoma, dosed 46 weeks, study length 66 weeks
  TD50: 31.2 mg/kg/day
rat, strain Sprague-Dawley, females, in feed, site: mammary gland, lesion: several types, types named in the paper, dosed 46 weeks, study length 66 weeks
  TD50: 8.61 mg/kg/day

## N#CS
rat, strain Fischer 344, females, in drinking water, site: liver, lesion: one or several types, types not named, dosed 112 weeks, study length 130 weeks
  carcinogen call: negative (inactive)
rat, strain Fischer 344, males, in drinking water, site: liver, lesion: one or several types, types not named, dosed 112 weeks, study length 130 weeks
  TD50: 2760 mg/kg/day (inactive)
rat, strain Fischer 344, males, in drinking water, site: skin and subcutis, lesion: one or several types, types not named, dosed 112 weeks, study length 130 weeks
  TD50: 224 mg/kg/day (inactive)

## ClC(Br)Br
mouse, strain B6C3F1, females, by gavage, site: liver, lesion: hepatocellular adenoma + hepatocellular carcinoma + neoplastic nodule, dosed 105 weeks, study length 106 weeks
  TD50: 139 mg/kg/day
mouse, strain B6C3F1, females, by gavage, site: liver, lesion: hepatocellular adenoma + hepatocellular carcinoma, dosed 105 weeks, study length 106 weeks
  TD50: 139 mg/kg/day
mouse, strain B6C3F1, females, by gavage, site: liver, lesion: hepatocellular adenoma, dosed 105 weeks, study length 106 weeks
  TD50: 211 mg/kg/day
mouse, strain B6C3F1, males, by gavage, site: any site (literature study), lesion: several types, types named in the paper, dosed 105 weeks, study length 106 weeks
  TD50: 11.3 mg/kg/day
mouse, strain B6C3F1, males, by gavage, site: liver, lesion: hepatocellular adenoma + hepatocellular carcinoma + neoplastic nodule, dosed 105 weeks, study length 106 weeks
  TD50: 20.7 mg/kg/day
mouse, strain B6C3F1, males, by gavage, site: liver, lesion: hepatocellular adenoma + hepatocellular carcinoma, dosed 105 weeks, study length 106 weeks
  TD50: 20.7 mg/kg/day
mouse, strain B6C3F1, males, by gavage, site: liver, lesion: hepatocellular carcinoma, dosed 105 weeks, study length 106 weeks
  TD50: 33.5 mg/kg/day
mouse, strain B6C3F1, males, by gavage, site: lung, lesion: alveolar/bronchiolar adenoma + alveolar/bronchiolar carcinoma, dosed 105 weeks, study length 106 weeks
  TD50: 115 mg/kg/day
rat, strain Fischer 344, females, by gavage, site: any site (literature study), lesion: several types, types named in the paper, dosed 104 weeks, study length 105 weeks
  carcinogen call: negative (inactive)
rat, strain Fischer 344, females, by gavage, site: liver, lesion: hepatocellular adenoma + hepatocellular carcinoma + neoplastic nodule, dosed 104 weeks, study length 105 weeks
  TD50: 591 mg/kg/day
rat, strain Fischer 344, males, by gavage, site: any site (literature study), lesion: several types, types named in the paper, dosed 104 weeks, study length 105 weeks
  carcinogen call: negative (inactive)
rat, strain Fischer 344, males, by gavage, site: liver, lesion: hepatocellular adenoma + hepatocellular carcinoma + neoplastic nodule, dosed 104 weeks, study length 105 weeks
  TD50: 150 mg/kg/day

## Cc1cc(OC(=O)N(C)C)n(C(C)C)n1
mouse, strain B6AKF1, females, oral dosing, site: any site (literature study), lesion: several types, types named in the paper, dosed 76 weeks, study length 76 weeks
  TD50: 0.023 mg/kg/day (inactive)
mouse, strain B6AKF1, females, oral dosing, site: liver, lesion: hepatoma, dosed 76 weeks, study length 76 weeks
  carcinogen call: negative (inactive)
mouse, strain B6AKF1, females, oral dosing, site: lung, lesion: several types, types named in the paper, dosed 76 weeks, study length 76 weeks
  carcinogen call: negative (inactive)
mouse, strain B6AKF1, males, oral dosing, site: any site (literature study), lesion: several types, types named in the paper, dosed 76 weeks, study length 76 weeks
  TD50: 0.0124 mg/kg/day (inactive)
mouse, strain B6AKF1, males, oral dosing, site: liver, lesion: hepatoma, dosed 76 weeks, study length 76 weeks
  TD50: 0.0419 mg/kg/day (inactive)
mouse, strain B6AKF1, males, oral dosing, site: lung, lesion: adenoma, dosed 76 weeks, study length 76 weeks
  TD50: 0.0147 mg/kg/day (inactive)
mouse, strain B6C3F1, females, oral dosing, site: any site (literature study), lesion: several types, types named in the paper, dosed 76 weeks, study length 76 weeks
  carcinogen call: negative (inactive)
mouse, strain B6C3F1, females, oral dosing, site: liver, lesion: hepatoma, dosed 76 weeks, study length 76 weeks
  carcinogen call: negative (inactive)
mouse, strain B6C3F1, females, oral dosing, site: lung, lesion: adenoma, dosed 76 weeks, study length 76 weeks
  carcinogen call: negative (inactive)
mouse, strain B6C3F1, males, oral dosing, site: any site (literature study), lesion: several types, types named in the paper, dosed 76 weeks, study length 76 weeks
  TD50: 0.0413 mg/kg/day (inactive)
mouse, strain B6C3F1, males, oral dosing, site: liver, lesion: hepatoma, dosed 76 weeks, study length 76 weeks
  carcinogen call: negative (inactive)
mouse, strain B6C3F1, males, oral dosing, site: lung, lesion: adenoma, dosed 76 weeks, study length 76 weeks
  TD50: 0.0156 mg/kg/day (inactive)

## C=C/C=N/O
rat, strain Fischer 344, females, in drinking water, site: liver, lesion: hepatocellular carcinoma, dosed 104 weeks, study length 129 weeks
  TD50: 104 mg/kg/day
rat, strain Fischer 344, females, in drinking water, site: liver, lesion: hyperplastic nodule, dosed 30 weeks, study length 123 weeks
  TD50: 41.9 mg/kg/day
rat, strain Fischer 344, females, in drinking water, site: liver, lesion: hyperplastic nodule, dosed 104 weeks, study length 129 weeks
  TD50: 43.8 mg/kg/day
rat, strain Fischer 344, females, in drinking water, site: liver, lesion: several types, types named in the paper, dosed 104 weeks, study length 129 weeks
  TD50: 27.1 mg/kg/day
rat, strain Fischer 344, males, in drinking water, site: liver, lesion: hepatocellular carcinoma, dosed 30 weeks, study length 123 weeks
  TD50: 50.7 mg/kg/day
rat, strain Fischer 344, males, in drinking water, site: liver, lesion: hepatocellular carcinoma, dosed 104 weeks, study length 128 weeks
  TD50: 72.6 mg/kg/day
rat, strain Fischer 344, males, in drinking water, site: liver, lesion: hyperplastic nodule, dosed 30 weeks, study length 123 weeks
  TD50: 29.3 mg/kg/day
rat, strain Fischer 344, males, in drinking water, site: liver, lesion: hyperplastic nodule, dosed 104 weeks, study length 128 weeks
  TD50: 64.9 mg/kg/day
rat, strain Fischer 344, males, in drinking water, site: liver, lesion: several types, types named in the paper, dosed 30 weeks, study length 123 weeks
  TD50: 16.4 mg/kg/day
rat, strain Fischer 344, males, in drinking water, site: liver, lesion: several types, types named in the paper, dosed 104 weeks, study length 128 weeks
  TD50: 30.4 mg/kg/day
